Legend:
C5L2 protein = target: T1, C5L2 protein (Homo sapiens, UniProt Q9P296); test: Ligand screening: binding of radio-labeled candidate compound to cell membrane fraction of 293 cells transformed with pcDNAC5L2 versus empty-vector control; details: final concentration of CGS21680 100 nM; 37° C. for 30 minutes; supernatant counted by liquid scintillation
T1 construct: Myc (C); His (C); expressed in transfected cells; host or cells: 293 cell line (ATCC CRL-1573), cell membrane fraction
Procedure: The transformants were incubated for 48 to 72 hours. The incubated cells were washed with PBS and, then, 1 ml/plate of EDTA-containing PBS (EDTA concentration: 0.01%) was added to the washed cells. Using Cell Scraper-L (catalog number: MS-93300) (manufactured and sold by Sumitomo Bakelite Co., Ltd., Japan), the cells were scraped off from the plate and washed twice with PBS. The washed cells were suspended in 0.5 ml of 25 mM HEPES solution (pH 7.4) containing Complete™ Protease Inhibitor Cocktail Set (manufactured and sold by Boehringer Mannheim Corporation, Germany), and the resultant cell suspension was transferred to a microtube. […]
The cell membrane fractions were prepared from the 293 cells (i.e., cells of 293 cell line) transformed with pcDNAC5L2 (i.e., C5L2 transformants) and the 293 cells transformed with pcDNA3.1/Myc-His(+)B vector (i.e., control) in substantially the same manner as in Example 5. […] Subsequently, the radioactivity of the prepared sample was measured by means of a scintillation counter (Beckman LS6000LL, manufactured and sold by Beckman Instruments, Inc., U.S.A.). The amount of the unbound candidate compound was determined from the measured radioactivity.

[1] = target: T2, C5L2 protein-expressing CHO cells (Homo sapiens, UniProt Q9P296); test: Screening of a substance which antagonizes a ligand: chemotaxis assay of CHO cells transformed with C5L2 toward LPS-administered rat serum; format: cell-based; details: NECA final concentration 100 μM in upper and lower compartments; LPS-administered rat serum as ligand source
T2 construct: Myc (C); His (C); expressed in transfected cells; host or cells: CHO cells (ATCC CCL-61), Geneticin-selected
T2 sequence (Q9P296 whole entry): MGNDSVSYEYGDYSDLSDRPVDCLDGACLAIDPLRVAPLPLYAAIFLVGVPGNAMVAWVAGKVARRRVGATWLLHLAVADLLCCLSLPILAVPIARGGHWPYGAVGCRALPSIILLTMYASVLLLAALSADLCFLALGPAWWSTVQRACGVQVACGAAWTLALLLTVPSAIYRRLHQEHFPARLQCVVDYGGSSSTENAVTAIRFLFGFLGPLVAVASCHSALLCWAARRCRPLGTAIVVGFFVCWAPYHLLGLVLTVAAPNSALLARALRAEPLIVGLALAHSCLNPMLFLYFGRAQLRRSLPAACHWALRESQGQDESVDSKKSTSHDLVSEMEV
Procedure: A chemotaxis Assay was Conducted with respect to the CHO cells transformed with C5L2. […] The chemotaxis of the cells in the absence of the antagonist candidate substance against a ligand was compared with that in the presence of the antagonist candidate substance against a ligand.

T1 sequence (Q9P296 whole entry): as above

Row | SMILES | radioactivity of unbound candidate compound, C5L2 transformants versus control cells (C5L2 protein) | chemotaxis of the cells in the presence versus absence of the antagonist candidate substance [1]
1 | CCNC(=O)[C@H]1O[C@@H](n2cnc3c(N)nc(NCCc4ccc(CCC(=O)O)cc4)nc32)[C@H](O)[C@@H]1O [CGS21680] | no difference in the radioactivity was observed | –
2 | CCNC(=O)[C@H]1O[C@@H](n2cnc3c(N)ncnc32)[C@H](O)[C@@H]1O [NECA, 5′-(N-ethylcarboxyamide)adenosine] | – | no difference was observed
